Assay: Test Example 1: deodorant effect of sprayed liquid formulations against ammonia gas in a flask
Settings: after 30 minutes, about 20° C.
Procedure: Into a glass Erlenmeyer flask (1L-volume), 1 mL of 1.8% aqueous solution of ammonia was placed at room temperature (about 20° C.). After the flask was sealed with a rubber stopper and shaken to be filled with ammonia gas, the concentration of ammonia was measured with a gas detector tube (No. 3HM, Gastec Corporation).
Next, 1 mL of each formulation obtained in Production example 1 was sprayed into the flask. The concentration of ammonia was measured with a gas detector tube (No. 3HM, Gastec Corporation) after 30 minutes. A control solution (1 mL) of a mixed solvent without the present deodorant compound was added into an Erlenmeyer flask (1 L-volume) containing ammonia gas, and then the […] of ammonia was measured with the same method after 30 minutes.
Dehydroacetic acid was formulated in the same manner as Production example 1, and then comparative test was carried out by the same method.
The formulations obtained in Production example 2 and 3 were provided to the same test.
Deodorant rates were calculated by formula 1. [formula]

## dehydroacetic acid
1 mL formulation of Production example 1 (5 parts compound, 80 parts ethanol, 15 parts water) sprayed
  Deodorant rate (%) Production example 1: 20%
1 mL formulation of Production example 2 (5 parts compound, 80 parts isopropyl alcohol, 15 parts water) sprayed
  Deodorant rate (%) Production example 2: 25%
1 mL formulation of Production example 3 (5 parts compound, 80 parts glycerin, 15 parts water) sprayed
  Deodorant rate (%) Production example 3: 25%
